{"source": "patent US8790712B2", "about": "“Constitutional function-improving agents” (Cosmo Oil Co., Ltd., priority 2004, dated 2014)", "key": {"[1]": {"system": "Mice (35 to 45 weeks old, BALB/cAJc1)", "experiment": "Thymus weight of aged mice after 7 days oral ALA hydrochloride (Example 1)", "type": "in vivo, mouse", "settings": "10 mg/kg ALA hydrochloride orally once a day for 7 days, average of 5", "method": "Mice (35 to 45 weeks old, BALB/cAJc1) preliminary raised for 1 week were injected with 10 mg of 5-aminolevulinic acid (hereinafter referred to as “ALA”) hydrochloride per kg mouse body weight once a day for 7 days continuously. ALA hydrochloride was adjusted to a concentration of […] with distilled water and orally administered to the mice. After the test, each mouse was sacrificed and the weight of its thymus was measured. The test was carried out using 5 mice per 1 plot, and their values were shown by average value."}, "[2]": {"system": "ALA dehydrase (ALAD)", "experiment": "ALAD activity of blood (Example 5)", "type": "in vivo, mouse", "settings": "male mice, 10 mg/kg orally once a day for 7 days", "method": "Mice (35 to 45 weeks old, BALB/cAJc1) preliminary raised for 1 week were injected with 10 mg of ALA hydrochloride per 1 kg mouse body weight once a day for 7 days continuously. ALA hydrochloride was adjusted to a concentration of […] with distilled water and orally administered to the mice. After the test, each mouse was sacrificed to collect mouse blood, and ALA dehydrase (ALAD) activity (the activity of ALA in which it is dimerized and thereby forms porphobilinogen (hereinafter referred to as “PBG”) as one molecule pyrrole substance) and porphobilinogen deaminase (PBGD) activity (the activity to convert from PBG to hydroxymethylbilane) per 1 ml of the blood were measured. […] To 0.02 ml of heparin-treated mouse whole blood, 0.33 ml of distilled water was added, the mixture was adjusted to a total volume of 0.5 ml by adding thereto 0.05 ml of 0.5 M Na-phosphate buffer (pH 6.4), 0.05 ml of 0.1 M DTT (containing 1 mM ZnSO4) and 0.05 ml of 50 mM ALA hydrochloride and was kept at 37° C. for 30 minutes, the reaction was stopped by adding 0.5 ml of 1 M trichloroacetic acid, and then Ehrlich reagent was added to a supernatant after centrifugation at 3000 rpm in the same volume, and precisely 10 minutes thereafter, absorbance at 553 nm, which is a characteristic absorbance of the compound formed by the reaction of Ehrlich reagent with PBG, was measured (OD) using a spectrophotometer. […]"}, "[3]": {"system": "Mice (35 to 45 weeks old, BALB/cAJc1)", "experiment": "Rotary exercise quantity measuring device, rotations within 16 hours (Example 6)", "type": "in vivo, mouse", "method": "Mice (35 to 45 weeks old, BALB/cAJc1) preliminary raised for 1 week were injected with 10 mg of ALA hydrochloride per 1 kg mouse body weight once a day for 7 days continuously. ALA hydrochloride was adjusted to a concentration of […] with distilled water and orally administered to the mice. The mouse was put into a rotary exercise quantity measuring device (rotating basket: 200 mm in diameter×50 mm in width, raising basket: W 90 mm×D 220 mm×H 90 mm, manufactured by Shinano Seisakusho) and the number of rotation within 16 hours was measured before and after the test. The test was carried out using 1 mouse per 1 rotary exercise quantity measuring device, and carried out on female mice using untreated 5 animals and ALA-treated 5 animals as 1 plot, and the values were shown by the average value. It was confirmed that the rotation quantity was large and the exercise capacity was improved in the plot treated with ALA."}, "[4]": {"system": "γ-GTP (gamma glutamyl transpeptidase)", "experiment": "Blood plasma γ-GTP of broiler chicks (Example 9)", "type": "in vivo, chick", "description": "A total of 300 chicks, 150 chicks for females and males respectively, of broiler primary chicks (Chunky) were purchased. After the purchase, chicks having abnormality (weakness or dwarf) were excluded, and the rest were equipped with wing belts for individual identification and their body weights were individually measured. […] Using 15 female or male chicks (30 chicks in total) as 1 group, they were put into a Chick Gird arranged in a closed type barn, and warmed by arranging an infrared ray lamp for animal use. The Chick Gird was expanded along with the growth of chicks. The feed and drinking water were constantly provided. The test groups were set to a total of 3 groups containing a control group in which a control feed (a standard testing feed SDB No. 1 was used from the neonatal to 3 weeks old, or a standard testing feed SDB No. 2 from 3 weeks old to 7 weeks old, (both manufactured by Nippon Formula Feed Mfg Co., Ltd., Table 9) without adding ALA hydrochloride is provided, and 2 test groups of ALA-10 ppm treated group and ALA-50 ppm treated group in which 10 ppm or 50 ppm of ALA hydrochloride is added to the feed and provided, and 3 repetition plots were arranged for each group. The number of chicks to be tested in each test group was as shown in Table 10. The test period was set to 7 weeks (7 weeks old) from the neonatal (start of the added feed provision), and total body weight of females or males was measured for each repetition plot at the time of the neonatal and at intervals of 1 week thereafter. In addition, about 2 ml of blood was collected from a brachial vein (basilic vein) of each of 18 chicks (3 female or male chicks/repetition) of each group at 3 weeks old and 7 weeks old, and about 1.5 ml thereof was subjected to a coagulation preventing treatment using heparin-lithium salt and then the blood plasma was separated to inspect the items of LDH, GOT (AST), γ-GTP, ALP, total protein, albumin, globulin, total cholesterol, triglyceride, glucose, uric acid, total bilirubin, uric acid, creatinine, calcium and inorganic phosphorus."}, "[5]": {"settings": "within 16 hours, after 7 days of 10 mg/kg oral dosing"}, "[6]": {"settings": "within 16 hours, before the 7 days of 10 mg/kg oral dosing"}}, "data": [{"smiles": "NCC(=O)CCC(=O)O", "note": "[ALA, 5-aminolevulinic acid]", "values": [{"measurement": "Thymus", "setting": "[1]; female mice", "result": 0.038, "unit": "g"}, {"measurement": "Thymus", "setting": "[1]; male mice", "result": 0.035, "unit": "g"}, {"measurement": "ALAD activity", "setting": "[2]", "result": 1.76, "unit": "μmol PBG/ml RBC/h"}, {"measurement": "Increasing ratio before and after the test (%)", "setting": "[3]; rotary exercise, 10 mg/kg orally once a day for 7 days", "result": 125, "unit": "%"}, {"measurement": "Distance (m), after the test", "setting": "[3]; [5]", "result": 8889, "unit": "m"}, {"measurement": "Number of rotation, after the test", "setting": "[3]; [5]", "result": 14155}, {"measurement": "Distance (m), before the test", "setting": "[3]; [6]", "result": 7095, "unit": "m"}, {"measurement": "Number of rotation, before the test", "setting": "[3]; [6]", "result": 11297}, {"measurement": "γ-GTP (IU/l)", "setting": "[4]; 10 ppm in feed, 3 weeks old", "result": 29.7, "unit": "IU/l"}, {"measurement": "γ-GTP (IU/l)", "setting": "[4]; 10 ppm in feed, 7 weeks old", "result": 29.7, "unit": "IU/l"}, {"measurement": "γ-GTP (IU/l)", "setting": "[4]; 50 ppm in feed, 3 weeks old", "result": 30.0, "unit": "IU/l"}, {"measurement": "γ-GTP (IU/l)", "setting": "[4]; 50 ppm in feed, 7 weeks old", "result": 32.7, "unit": "IU/l"}]}]}
